Reference: US7671035B2, “Epidermal growth factor receptor antisense oligonucleotides” (Idera Pharmaceuticals, Inc., priority 2001, dated 2010)
In the oligonucleotide strings, read from the 5' end, every base follows the letter of its sugar. An asterisk marks phosphorothioate; unmarked linkages are phosphodiester. Other units and linkages are bracketed, terminal groups are in braces. A string of capitals states the bases alone. d = 2'-deoxy (DNA)

Columns and labels:
[1] = tested on: human GEO colon cancer cells; assay: Soft agar (anchorage-independent) colony growth of GEO cells; type: cell-based; details: read-out: IC50, inhibition of GEO cell soft agar growth
Protocol: Antisense oligonucleotides having SEQ ID NOS: 1-10 were designed and evaluated for the ability to inhibit the anchorage-independent growth of human GEO colon cancer cells. Human cancer cells useful for this study are GEO cells.
The IC50 determined by treatment with these antisense oligonucleotides varied between 0.1 and 0.7 μM. Based on the nucleotide sequence and on the growth inhibitory activity, two sequences (corresponding to AS14 (SEQ 10 NO: 14) and AS22 (SEQ ID NO: 22)) were modified in their backbone structure as hybrid DNA-RNA 20-mer oligonucleotides (AS23 (SEQ ID NO: 23)) and AS24 (SEQ ID NO: 24)) and further characterized for their biological characteristics. GEO cells were grown as colonies in soft agar and treated with different concentrations of the indicated antisense oligonucleotides. IC50 values were obtained from three different experiments, each performed in triplicate.
GEO human colon cancer, OVCAR-3 human ovarian cancer, and ZR-75-1 human breast cancer cell lines were obtained from the American Type Culture Collection, Manassas, Va. (OVCAR, ATCC No. HTB-161; ZR-75-1, ATCC No. CRL-1500). […]
Cells (10^4 cells/well) were suspended in 0.5 ml of 0.3% Difco Noble agar (Difco, Detroit, Mich.) supplemented with complete culture medium. […] After 10 to 14 days, cells were stained with nitro blue tetrazolium (Sigma, St. Louis, Mo.) and colonies larger than 0.05 mm were counted.

EGFR = assay: Western blot of EGFR expression in GEO cells; type: cell-based, human; details: GEO cells treated three days at 0.1 μM or 0.5 μM, compared to scramble oligonucleotide-treated cells (FIG. 1B)
Protocol: FIG. 1A is a representation of a Western blot showing EGFR expression in GEO cancer cells following treatment with EGFR antisense oligonucleotides. GEO cells were treated for three days with 0.5 μM of the indicated oligonucleotides (AS 5, 6, 7, 8, 9, 10), 0.5 μM, or with 0.5 μM scramble sequence oligonucleotides. Equal amounts (50 μg/lane) of protein extracts were resolved by a 7.5% SDS-PAGE and probed with an anti-human EGFR monoclonal antibody. Immunoreactive proteins were visualized by enhanced chemiluminescence.
FIG. 1B is a representation of a Western blot showing EGFR expression in CEO cells following treatment with EGFR antisense oligonucleotides. GEO cells were treated for three days with AS23 and AS24 oligonucleotides (0.1 or 0.5 μM), respectively; or with 0.5 μM of scramble sequence oligonucleotides. Equal amounts (50 μg/lane) of protein extracts were resolved by a 7.5% SDS-PAGE and probed with an anti-human EGFR monoclonal antibody. Immunoreactive proteins were visualized by enhanced chemiluminescence. […]

p27 [2] = assay: Western blot of p27 expression in GEO cells; type: cell-based, human; details: three days, 0.1 and 0.5 μM (FIG. 3A)
Protocol: (§1) Equal amounts (50 μg/lane) of protein extracts were resolved by a 12% SDS-PAGE and probed with an anti-human p27 MAb. Immunoreactive proteins were visualized by enhanced chemiluminescence.
(§2) The ability of EGFR antisense treatment to induce p27 was therefore examined.
(§3) 50 μg total cell lysates from GEO cells, which were treated each day for three days with the indicated concentrations of antisense oligonucleotides, were fractionated through 7.5% or 12% sodium dodecyl sulfate-polyacrylamide gels, transferred to nitrocellulose filters and incubated with an anti-human EGFR mouse MAb or with an anti-human p27 mouse MAb (both antibodies were purchased from Transduction Laboratories, Lexington, Ky.), respectively, followed by horseradish-peroxidase antiserum (Bio-Rad Laboratories, Milano, Italy). Immunoreactive proteins were visualized by enhanced chemiluminescence (Amersham International, England).

p27 [3] = assay: Western blot of p27 expression in ZR-75-1 cells; type: cell-based, human; details: three days, 0.1 and 0.5 μM (FIG. 3B)
Protocol: as §1, §2, §3

GEO cells = assay: Soft agar growth of GEO cells, antisense MBO in combination with cytotoxic drugs; type: cell-based, human; details: for growth inhibitory effect in combination with cytotoxic drugs: GEO cells on soft agar, all doses, with each of cisplatin, doxorubicin, paclitaxel, topotecan (FIGS. 5, 6); for growth inhibition: soft agar
Protocol: FIG. 5A is a graphic representation showing the growth inhibitory effects of AS23 (0.01 μM, […], 0.1 μM) in combination with cisplatin on the growth of CEO cells in soft agar. Cells were treated with the indicated concentrations of cytotoxic drug on day 1, followed by the indicated concentrations of EGFR-AS oligonucleotide on each day from day 2 to day 4. Colonies were counted after 10 to 14 days. Data represent the average (±standard deviation) of three different experiments, each performed in triplicate.
The invention also provides a method of potentiating the growth inhibitory effect of a cytotoxin on a cancer cell. In this method, the cell is contacted with an oligonucleotide of the invention, as well as the cytotoxin. For example, the growth inhibitory effects of AS23 and AS24 on cancer cells were examined in combination with four different cytotoxins: cisplatin, doxorubicin, paclitaxel, and topotecan. […] When lower doses of these agents were used, the antiproliferative effect was clearly cooperative. […] The cooperativity quotient of this treatment, defined as the ratio between the actual growth inhibition obtained with cisplatin followed by AS23 MBO and the sum of the growth inhibition achieved by each agent, was approximately 1.8.
Cells (10^4 cells/well) were suspended in 0.5 ml of 0.3% Difco Noble agar (Difco, Detroit, Mich.) supplemented with complete culture medium. This suspension was layered over 0.5 ml of 0.8% agar-medium base layer in 24 multiwell cluster dishes (Becton Dickinson, Lincoln Park, N.J.) and treated on days 1, 2 and 3 with different concentrations of the various EGFR-AS oligonucleotides alone and/or in combination on day 1 with the indicated concentrations of cytotoxic drugs. After 10 to 14 days, cells were stained with nitro blue tetrazolium (Sigma, St. Louis, Mo.) and colonies larger than 0.05 mm were counted.

Row | Compound | IC50 [1] | EGFR protein expression (Western blot) (EGFR) | growth inhibitory effect in combination with cytotoxic drugs (GEO cells) | also measured
1 | ACACTGCCTGAGAGTTGCCC (antisense dA*dC*dA*dC*dT*dG*dC*dC*dT*dG*dA*dG*dA*dG*dT*dT*dG*dC*dC*dC) [AS1] | ~3.5 µM |  |  | 
2 | UAUGATCTGTCACAGCUUGA (phosphorothioate linkages, 2'-O-methyl ribonucleosides, further chemistry not given here) [AS23] |  | almost complete inhibition | supra-additive growth inhibitory effect | p27 expression (Western blot) (p27 [2]): dose-dependent increase in p27 expression; p27 expression (Western blot) (p27 [3]): dose-dependent increase in p27 expression; growth inhibition (GEO cells; GEO cells, 0.05 μM AS23 MBO alone): approximately 20%; inhibition of colony formation in soft agar (GEO cells; GEO cells, combined treatment 0.25 μg/ml cisplatin followed by 0.05 μM AS23 MBO (FIG. 5A)): 70%; cooperativity quotient (GEO cells; ratio of growth inhibition with cisplatin followed by AS23 MBO to the sum of growth inhibition by each agent, GEO cells): approximately 1.8
3 | N.N.[Cl][Pt][Cl] [cisplatin, CIS-diamminedichloroplatinum, reference compound] |  |  |  | growth inhibition (GEO cells; GEO cells, 0.25 μg/ml cisplatin alone): approximately 20%
4 | CTCTTCTTGACAGTCTGATG (antisense dC*dT*dC*dT*dT*dC*dT*dT*dG*dA*dC*dA*dG*dT*dC*dT*dG*dA*dT*dG) [AS10] | ~0.5 µM |  |  | 
5 | UGCTAGGTTTCCTCCCUUUC (phosphorothioate linkages, 2'-O-methyl ribonucleosides, further chemistry not given here) [AS24] |  | almost complete inhibition | supra-additive growth inhibitory effect | 
